Like-named read-outs stand apart in the source and are kept apart here.
Legend:
TLR7 = target: T1, TLR7 (Homo sapiens, UniProt Q9NYK1); assay: In vitro human TLR7 binding reporter assay (HEK-Blue, NF-kB/AP1-inducible SEAP); format: cell-based; settings: read-out: TLR7 Agonist EC50
T1 construct: human HEK-Blue cells co-expressing a TLR7 or TLR8 gene
T1 sequence (Q9NYK1 27-1049): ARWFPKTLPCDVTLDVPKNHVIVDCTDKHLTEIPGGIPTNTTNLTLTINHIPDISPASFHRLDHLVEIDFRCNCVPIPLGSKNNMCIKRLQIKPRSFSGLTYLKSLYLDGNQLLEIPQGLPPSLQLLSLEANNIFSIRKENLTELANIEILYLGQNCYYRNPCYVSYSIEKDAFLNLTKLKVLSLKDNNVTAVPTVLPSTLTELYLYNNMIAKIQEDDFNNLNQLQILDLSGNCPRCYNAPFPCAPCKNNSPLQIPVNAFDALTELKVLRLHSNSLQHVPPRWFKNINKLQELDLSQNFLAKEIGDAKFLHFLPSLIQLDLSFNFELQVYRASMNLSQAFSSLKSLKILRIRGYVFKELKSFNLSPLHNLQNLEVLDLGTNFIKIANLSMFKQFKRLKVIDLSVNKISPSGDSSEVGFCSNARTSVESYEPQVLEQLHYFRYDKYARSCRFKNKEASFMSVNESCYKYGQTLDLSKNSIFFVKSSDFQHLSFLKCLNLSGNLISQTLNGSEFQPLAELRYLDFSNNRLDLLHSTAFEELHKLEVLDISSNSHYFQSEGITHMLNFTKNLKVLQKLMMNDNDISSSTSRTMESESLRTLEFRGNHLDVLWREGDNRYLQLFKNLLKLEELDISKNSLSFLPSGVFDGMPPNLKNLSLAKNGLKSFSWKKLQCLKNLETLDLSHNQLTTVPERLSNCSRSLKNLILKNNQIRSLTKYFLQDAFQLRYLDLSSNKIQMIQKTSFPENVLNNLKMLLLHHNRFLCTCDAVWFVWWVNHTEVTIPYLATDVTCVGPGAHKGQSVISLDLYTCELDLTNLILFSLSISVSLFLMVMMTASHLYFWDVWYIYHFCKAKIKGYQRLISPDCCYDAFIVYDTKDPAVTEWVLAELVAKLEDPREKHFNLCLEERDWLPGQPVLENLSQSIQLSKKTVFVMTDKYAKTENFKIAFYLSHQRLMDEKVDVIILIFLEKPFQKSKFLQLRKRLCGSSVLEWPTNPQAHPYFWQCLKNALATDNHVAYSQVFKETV
Summary of the method: (§1)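 HEK-Blue cells expressing human TLR7 or TLR8 with NF-kB/AP1-inducible SEAP reporter, plated 24 h, then compound-treated 18 h at 37° C, 5% CO2. EC50 normalized to 100% Ymax set by 50 μM reference standard.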

TLR8 = target: T2, TLR8 (Homo sapiens, UniProt Q9NR97); assay: In vitro human TLR8 binding reporter assay (HEK-Blue, NF-kB/AP1-inducible SEAP); format: cell-based; settings: read-out: TLR8 Agonist EC50
T2 construct: human HEK-Blue cells co-expressing a TLR7 or TLR8 gene
T2 sequence (Q9NR97 27-1041): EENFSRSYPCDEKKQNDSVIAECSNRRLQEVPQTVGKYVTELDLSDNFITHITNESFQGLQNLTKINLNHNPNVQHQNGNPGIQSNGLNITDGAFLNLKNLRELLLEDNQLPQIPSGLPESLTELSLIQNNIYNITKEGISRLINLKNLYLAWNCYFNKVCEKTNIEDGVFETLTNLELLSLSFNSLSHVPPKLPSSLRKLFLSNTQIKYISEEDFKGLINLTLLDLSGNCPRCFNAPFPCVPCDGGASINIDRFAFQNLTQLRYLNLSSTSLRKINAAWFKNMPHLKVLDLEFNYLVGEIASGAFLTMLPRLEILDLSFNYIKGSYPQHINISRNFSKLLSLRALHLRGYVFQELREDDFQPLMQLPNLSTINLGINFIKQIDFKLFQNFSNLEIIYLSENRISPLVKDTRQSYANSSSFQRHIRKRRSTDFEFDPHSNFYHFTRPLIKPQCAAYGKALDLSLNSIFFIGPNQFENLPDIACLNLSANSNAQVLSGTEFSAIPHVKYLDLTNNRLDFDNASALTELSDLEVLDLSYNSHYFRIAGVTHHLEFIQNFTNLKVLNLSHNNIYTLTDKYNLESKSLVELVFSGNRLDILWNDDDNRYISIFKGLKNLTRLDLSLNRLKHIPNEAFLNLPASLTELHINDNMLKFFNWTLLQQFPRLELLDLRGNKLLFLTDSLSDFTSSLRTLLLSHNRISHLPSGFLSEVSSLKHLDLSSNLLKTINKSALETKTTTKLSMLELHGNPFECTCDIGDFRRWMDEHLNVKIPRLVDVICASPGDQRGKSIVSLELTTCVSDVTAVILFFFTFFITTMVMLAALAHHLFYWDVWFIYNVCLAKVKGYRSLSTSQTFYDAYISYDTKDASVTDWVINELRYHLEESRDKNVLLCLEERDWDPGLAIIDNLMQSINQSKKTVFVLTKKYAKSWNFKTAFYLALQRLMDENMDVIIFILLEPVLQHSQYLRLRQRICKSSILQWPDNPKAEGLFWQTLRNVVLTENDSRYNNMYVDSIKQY
Summary of the method: as §1

THP-1 cells = assay: Measurement of IL-1β production, hTRF protocol (second alternative procedure), THP-1 cells; format: cell-based, human; settings: Homo sapiens, THP-1, IL-1β production, read-out: NLRP3 hILIB EC50
Summary of the method: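 THP-1 cells differentiated overnight with 50 ng/ml PMA, then plated at 50,000 cells/well in RPMI with 2% FBS onto serial compound dilutions (top final concentration 10 μM) for 2 hours at 37° C. Supernatant IL-1β measured by hTRF (antibodies at 1:40, overnight at 4° C), read at 665/615 nm against a standard curve.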

Structure (SMILES) | EC50 (TLR7; activity range class) [µM] | EC50 (TLR8; activity range class) [µM] | EC50 (THP-1 cells; human) [µM] | EC50 (TLR7; activity range) [µM] | EC50 (TLR8; activity range) [µM] | EC50 (THP-1 cells; human cells) [µM]
CCn1cc2c(N)nc3cc(-c4cc[nH]n4)ccc3c2n1 [Example 334] | > 100 | > 100 | 0.11 | – | – | –
Nc1nc2cc(-c3cc[nH]n3)ccc2c2cn(CCNC(=O)CC(F)(F)F)nc12 [Example 181] | > 100 | > 100 | 6.53 | – | – | –
Cc1nc(Cn2cc3c(n2)c(N)nc2cc(-c4cc[nH]n4)ccc23)no1 [Example 174] | 1 to 20 | 20 to 100 | 0.23 | – | – | –
CC(=O)NCCCc1nc2c(N)nc3cc(-c4ccn[nH]4)ccc3c2s1 [Example 139, N-[3-[4-amino-7-(1H-pyrazol-5-yl)-[1,3]thiazolo[4,5-c]quinolin-2-yl]propyl]acetamide] | > 100 | > 100 | 7.8 | – | – | –
Nc1nc2cc(-c3cc[nH]n3)ccc2c2nn(CCOC(F)F)cc12 [Example 349] | > 100 | > 100 | 0.35 | – | – | –
CC(C)n1cc2c(N)nc3cc(-c4cc[nH]n4)ccc3c2n1 [Example 326] | > 100 | > 100 | 0.22 | – | – | –
CCNC(=O)Cn1cc2c(n1)c(N)nc1cc(-n3cccn3)ccc12 [Example 19] | 20 to 100 | 20 to 100 | 3.88 | – | – | –
CC(C)(N)Cn1cc2c(N)nc3cc(-c4ccn[nH]4)ccc3c2n1 [Example 267] | > 100 | > 100 | 1.07 | – | – | –
Nc1nc2cc(-c3cc[nH]n3)ccc2c2nn(C3COC3)cc12 [Example 241] | > 100 | > 100 | 0.46 | – | – | –
Nc1nc2cc(-c3cc[nH]n3)ccc2c2cn(CCNC(=O)c3nccs3)nc12 [Example 97] | > 100 | > 100 | 0.23 | – | – | –
Cc1ccc(C(=O)NCCn2cc3c(n2)c(N)nc2cc(-c4cc[nH]n4)ccc23)cc1 [Example 41] | > 100 | > 100 | 0.8 | – | – | –
Nc1nc2cc(-c3ccn[nH]3)ccc2c2sc(CCCOCc3ccccc3)nc12 [Example 141, 2-[3-(benzyloxy)propyl]-7-(1H-pyrazol-3-yl)-[1,3]thiazolo[4,5-c]quinolin-4-amine] | > 100 | ≤ 1 | 6.28 | – | – | –
Cc1csc(C(=O)NCCn2cc3c(n2)c(N)nc2cc(-c4cc[nH]n4)ccc23)n1 [Example 96] | > 100 | 20 to 100 | 0.31 | – | – | –
Nc1nc2cc(-c3ccn[nH]3)ccc2c2[nH]c(CC3CCCO3)cc12 (stereo not drawn) [Example 156, 2-[(oxolan-2-yl)methyl]-7-(1H-pyrazol-5-yl)-1H-pyrrolo[3,2-c]quinolin-4-amine] | > 100 | > 100 | 0.31 | – | – | –
COCC(C)n1cc2c(N)nc3cc(-c4cc[nH]n4)ccc3c2n1 (single isomer, unassigned) [Example 337] | > 100 | > 100 | 0.22 | – | – | –
Nc1nc2cc(-c3cc[nH]n3)c(Cl)cc2c2cn(CCNC(=O)c3ccc(F)cn3)nc12 [Example 195, N-(2-(4-amino-8-chloro-7-(1H-pyrazol-3-yl)-2H-pyrazolo[3,4-c]quinolin-2-yl)ethyl)-5-fluoropicolinamide] | > 100 | 20 to 100 | 2.15 | – | – | –

Results, then the compound that gave them:

EC50 (TLR7; activity range class) [µM] | EC50 (TLR8; activity range class) [µM] | EC50 (THP-1 cells; human) [µM] | EC50 (TLR7; activity range) [µM] | EC50 (TLR8; activity range) [µM] | EC50 (THP-1 cells; human cells) [µM] | Structure (SMILES)
– | – | – | > 100 | > 100 | 0.6 | Nc1nc2cc(-c3cc[nH]n3)ccc2c2cn(CC(=O)NCC(F)F)nc12 [Example 538]
– | – | – | > 100 | > 100 | 0.34 | Nc1nc2cc(-c3cc[nH]n3)ccc2c2cn(CC(=O)N3CCOCC3)nc12 [Example 532]
– | – | – | > 100 | > 100 | 0.66 | CC(=O)NCc1cc2c(N)nc3cc(-n4cccn4)ccc3c2[nH]1 [Example 445]
– | – | – | > 100 | > 100 | 0.32 | CN(C)Cc1cc2c(N)nc3cc(-c4ccn[nH]4)ccc3c2[nH]1 [Example 439]
– | – | – | > 100 | > 100 | 1.58 | COCCN(C)C(=O)Cn1cc2c(n1)c(N)nc1cc(-c3cc[nH]n3)ccc12 [Example 542]
– | – | – | > 100 | > 100 | 0.94 | CC(C)NC(=O)C(C)n1cc2c(N)nc3cc(-c4ccn[nH]4)ccc3c2n1 (stereo not drawn) [Example 569]
– | – | – | > 100 | > 100 | 0.77 | CO[C@H](CO)Cn1cc2c(N)nc3cc(-c4cc[nH]n4)ccc3c2n1 [Example 489]
– | – | – | > 100 | > 100 | 1.89 | CC(N)CCn1cc2c(N)nc3cc(-n4cccn4)ccc3c2n1 (stereo not drawn) [Example 426]
– | – | – | > 100 | > 100 | 7.37 | Nc1nc2cc(-c3cc[nH]n3)ccc2c2nn(CCC(=O)N3CCCC3)cc12 [Example 508]
– | – | – | > 100 | > 100 | 3.61 | COC1CN(CCn2ncc3c(N)nc4cc(-c5cc[nH]n5)ccc4c32)C1 [Example 435]
– | – | – | > 100 | > 100 | 0.37 | Nc1nc2cc(-c3cc[nH]n3)ccc2c2[nH]c(CCNC(=O)c3cnco3)cc12 [Example 500]
– | – | – | > 100 | > 100 | 0.09 | Nc1nc2cc(-c3cc[nH]n3)ccc2c2[nH]c(CNCC(F)F)cc12 [Example 520]

— patent publication US12037344B2, “NLRP3 modulators” (INNATE TUMOR IMMUNITY, INC., priority 2018, dated 2024)
